pIC50: −log10 of the molar value. Read-outs that look alike come from different tables or passages of the source.
Columns and labels:
[1] = system: complement; assay: Inhibition of complement mediated hemolysis; type: cell-based
Experimental: The complement mediated hemolysis is widely used as a means to determine the titration of complement. The principle of this method is based on the fact that hemolysis is caused by the activation of complement, when the latter is added to a complex (immune complex) of erythrocytes and the antibody thereof. The degree of hemolysis varies in proportion to the amount of complement added. Therefore, when a known amount of complement admixed with a C1 esterase inhibitor is used, the hemolysis must be suppressed in proportion to the inhibitory activity.
The anti-C1 esterase (C1r, C1s) activity was determined according to the method of Okamura et al. [K. Okamura, M. Muramatsu and B. Fujii, Biochem. Biophys. […] The figures in Table 2 have the following meanings: […]

[2] = target: T1, C1r (Homo sapiens, UniProt P00736); assay: biochemical; conditions: molar concentration inhibiting 50% of AAME hydrolysis; read-out: ID50 C1r (Anti-C1 activity)
T1 sequence (P00736 464-705 limits assumed): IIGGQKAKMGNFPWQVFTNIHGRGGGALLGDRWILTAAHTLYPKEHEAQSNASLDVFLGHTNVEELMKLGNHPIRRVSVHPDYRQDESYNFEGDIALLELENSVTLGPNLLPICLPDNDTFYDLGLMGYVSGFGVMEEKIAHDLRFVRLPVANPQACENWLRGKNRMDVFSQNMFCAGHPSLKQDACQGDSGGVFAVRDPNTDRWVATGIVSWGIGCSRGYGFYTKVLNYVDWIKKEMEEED
T1 sequence (P00736 18-463 partner limits assumed): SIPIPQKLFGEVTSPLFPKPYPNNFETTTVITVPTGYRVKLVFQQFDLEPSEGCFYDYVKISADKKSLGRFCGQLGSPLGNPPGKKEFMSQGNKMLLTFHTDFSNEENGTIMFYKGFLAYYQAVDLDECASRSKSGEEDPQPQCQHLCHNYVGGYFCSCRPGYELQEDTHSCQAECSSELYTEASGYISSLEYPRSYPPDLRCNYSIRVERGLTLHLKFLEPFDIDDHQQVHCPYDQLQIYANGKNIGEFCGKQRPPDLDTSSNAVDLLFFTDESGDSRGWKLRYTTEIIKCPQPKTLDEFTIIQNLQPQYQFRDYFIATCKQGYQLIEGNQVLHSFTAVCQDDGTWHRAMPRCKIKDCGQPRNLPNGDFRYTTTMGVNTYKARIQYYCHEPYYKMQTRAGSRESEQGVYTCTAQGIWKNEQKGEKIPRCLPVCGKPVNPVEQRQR

[3] = target: Plasmin (Homo sapiens, UniProt P00747); assay: Anti-plasmin activity (hydrolysis of TAME); type: biochemical; conditions: molar concentration inhibiting 50% of TAME hydrolysis; read-out: ID50 plasmin
Plasmin, sequence (P00747 581-810 limits assumed, species assumed): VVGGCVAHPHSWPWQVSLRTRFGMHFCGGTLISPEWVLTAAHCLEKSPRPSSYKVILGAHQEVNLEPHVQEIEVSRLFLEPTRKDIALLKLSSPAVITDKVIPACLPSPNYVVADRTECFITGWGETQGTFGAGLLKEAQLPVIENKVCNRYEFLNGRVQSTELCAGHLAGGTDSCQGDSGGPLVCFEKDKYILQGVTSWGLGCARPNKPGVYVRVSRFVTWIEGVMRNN
Plasmin, sequence (P00747 97-580 partner limits assumed, species assumed): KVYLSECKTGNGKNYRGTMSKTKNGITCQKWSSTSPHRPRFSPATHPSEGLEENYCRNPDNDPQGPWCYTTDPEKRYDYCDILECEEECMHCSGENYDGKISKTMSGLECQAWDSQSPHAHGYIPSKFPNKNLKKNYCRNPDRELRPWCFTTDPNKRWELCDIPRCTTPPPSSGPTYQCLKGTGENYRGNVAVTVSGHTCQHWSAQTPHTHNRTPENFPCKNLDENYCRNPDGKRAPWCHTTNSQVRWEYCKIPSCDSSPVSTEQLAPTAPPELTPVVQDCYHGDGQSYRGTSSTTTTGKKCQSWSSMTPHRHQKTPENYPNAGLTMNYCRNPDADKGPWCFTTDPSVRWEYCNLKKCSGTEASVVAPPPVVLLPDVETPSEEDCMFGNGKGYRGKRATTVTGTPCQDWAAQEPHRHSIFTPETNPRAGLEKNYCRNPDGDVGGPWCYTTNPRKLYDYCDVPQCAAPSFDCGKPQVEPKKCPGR
Experimental: The anti-trypsin, anti-plasmin, anti-kallikrein and anti-thrombin activities were determined according to the method of Muramatsu et al. [M. Muramatus, T. Onishi, S. Makino, Y. Hayashi and S. Fujii, J. of Biochem., 58, 214 (1965)]. […] The compound No. corresponds to the compound number shown in Examples.

[4] = target: T2, C1s (Homo sapiens, UniProt P09871); assay: Anti-C1s activity (hydrolysis of ATEE); type: biochemical; conditions: molar concentration inhibiting 50% of ATEE hydrolysis; read-out: ID50 C1s (Anti-C1 activity)
T2 sequence (P09871 438-688 limits assumed): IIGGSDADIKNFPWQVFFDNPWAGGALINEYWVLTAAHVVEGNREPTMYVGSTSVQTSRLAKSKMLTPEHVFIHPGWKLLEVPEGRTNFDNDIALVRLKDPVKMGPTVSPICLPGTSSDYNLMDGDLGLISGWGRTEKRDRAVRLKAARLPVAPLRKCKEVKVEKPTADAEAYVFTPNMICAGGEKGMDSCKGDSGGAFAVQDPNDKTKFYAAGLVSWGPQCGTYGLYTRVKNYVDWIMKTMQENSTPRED
T2 sequence (P09871 16-437 partner limits assumed): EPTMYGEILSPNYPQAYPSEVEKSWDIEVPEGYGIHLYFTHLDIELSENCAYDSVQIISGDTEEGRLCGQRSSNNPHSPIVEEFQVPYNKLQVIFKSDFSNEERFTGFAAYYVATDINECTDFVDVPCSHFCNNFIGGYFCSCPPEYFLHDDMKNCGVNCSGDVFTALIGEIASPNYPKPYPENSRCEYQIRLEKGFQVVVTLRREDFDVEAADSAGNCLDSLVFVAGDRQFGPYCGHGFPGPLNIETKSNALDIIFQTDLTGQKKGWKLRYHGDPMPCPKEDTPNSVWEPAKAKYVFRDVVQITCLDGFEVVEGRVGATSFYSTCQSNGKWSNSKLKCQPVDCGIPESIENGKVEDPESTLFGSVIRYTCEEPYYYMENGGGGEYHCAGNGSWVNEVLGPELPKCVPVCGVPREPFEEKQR
Experimental: The anti-C1 esterase (C1r, C1s) activity was determined according to the method of Okamura et al. [K. Okamura, M. Muramatsu and B. Fujii, Biochem. Biophys. Acta, 295, 252-257 (1973)]. The inhibition of complement mediated hemolysis was determined according to the method of Baker et al. [B. R. Baker and E. H. Erickson, J. Med. Chem. 12, 408-414 (1969)]. The figures in Table 2 have the following meanings:
C1s: Molar concentration of the test compound which inhibits 50% of the ability of C1s to hydrolyse ATEE (acetyltyrosin ethyl ester) (ID50).

[5] = system: Kallikrein; assay: Anti-kallikrein activity (hydrolysis of TAME); type: biochemical; conditions: molar concentration inhibiting 50% of TAME hydrolysis; read-out: ID50 kallikrein
Experimental: (§1) The anti-trypsin, anti-plasmin, anti-kallikrein and anti-thrombin activities were determined according to the method of Muramatsu et al. [M. Muramatus, T. Onishi, S. Makino, Y. Hayashi and S. Fujii, J. of Biochem., 58, 214 (1965)]. The data summarized in Table 1 are expressed in terms of molar concentration (ID50) of the test compound which inhibits 50% of the activity of each enzyme to hydrolyze TAME (tosylalginine methyl ester). The compound No. corresponds to the compound number shown in Examples.

[6] = target: Thrombin (Homo sapiens, UniProt P00734); assay: biochemical; conditions: for pIC50: read-out: ID50 thrombin
[7] = target: T3, Trypsin (Bos taurus, UniProt P00760); assay: Anti-trypsin activity (hydrolysis of TAME); type: biochemical; conditions: molar concentration inhibiting 50% of TAME hydrolysis; read-out: ID50 trypsin
T3 sequence (P00760 24-246): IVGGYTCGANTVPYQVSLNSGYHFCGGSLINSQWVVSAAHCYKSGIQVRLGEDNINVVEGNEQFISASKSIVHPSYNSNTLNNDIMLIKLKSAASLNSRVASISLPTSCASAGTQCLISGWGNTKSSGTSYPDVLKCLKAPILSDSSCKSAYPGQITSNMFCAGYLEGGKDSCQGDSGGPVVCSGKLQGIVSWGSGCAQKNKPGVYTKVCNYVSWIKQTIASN
Experimental: as §1

[8] = molar concentration inhibiting 50% of TAME hydrolysis

| inhibition at 10 µM ([6]; figure in parentheses, at 1×10^-5 M, TAME, read-out: percentage inhibition of thrombin) | Compound | Inhibition of complement mediated hemolysis (%) ([1]; 1 × 10^-5) | Inhibition of complement mediated hemolysis (%) ([1]; 1 × 10^-6) | Inhibition of complement mediated hemolysis (%) ([1]; 1 × 10^-7) | pIC50 [2] | pIC50 [3] | pIC50 [4] | pIC50 [5] | pIC50 [6, 8] | pIC50 [7] | pIC50 [6] |
| --- | --- | --- | --- | --- | --- | --- | --- | --- | --- | --- | --- |
| – | N=C(N)c1ccc2cc(OC(=O)c3ccc(CNC(=O)c4cccnc4)o3)ccc2c1 [compound 16] | 100% | 100% | 97% | 6.40 | 6.00 | 6.52 | 6.40 | 6.40 | 6.00 | – |
| – | N=C(N)c1ccc2cc(OC(=O)c3ccc(CNC(=O)c4cnc5ccccc5c4)o3)ccc2c1 [compound 17] | 100% | 100% | 93% | 6.30 | 5.70 | 5.70 | 6.00 | 6.15 | 6.10 | – |
| – | N=C(N)c1ccc2cc(OC(=O)c3ccc(CNC(=O)CCOCc4ccccc4)o3)ccc2c1 [compound 18] | 100% | 100% | 97% | 6.52 | 6.30 | 5.52 | 6.30 | 6.30 | 6.05 | – |
| – | N=C(N)c1ccc2cc(OC(=O)c3ccc(CNC(=O)OCc4ccccc4)o3)ccc2c1 [compound 19] | 97% | 97% | 93% | 6.70 | 6.52 | 6.52 | 6.15 | 6.70 | 6.70 | – |
| – | CN(C)Cc1ccc(C(=O)Oc2ccc3cc(C(=N)N)ccc3c2)o1 [compound 23] | 100% | 95% | 76% | 5.52 | 5.70 | 5.70 | 5.52 | 5.40 | 6.30 | – |
| – | N=C(N)c1ccc2cc(OC(=O)c3ccc(CN4CCOCC4)o3)ccc2c1 [compound 25] | 100% | 98% | 82% | 6.00 | 6.22 | 5.70 | 5.70 | – | 6.15 | 5.52 |
| – | N=C(N)c1ccc2cc(OC(=O)c3ccc(CN4CCN(Cc5ccccc5)CC4)o3)ccc2c1 [compound 26] | 100% | 98% | 93% | 6.30 | 6.22 | 5.40 | 5.52 | 5.70 | 6.52 | – |
| 46% | N=C(N)NCc1ccc(C(=O)Oc2ccc3cc(C(=N)N)ccc3c2)s1 [compound 28] | 100% | 82% | 35% | 5.70 | 5.05 | 5.52 | 5.40 | – | 5.40 | – |
| – | N=C(N)c1ccc2cc(OC(=O)c3ccc(CN)o3)ccc2c1 [compound 33] | 97% | 97% | 81% | 6.15 | 6.40 | 5.70 | 5.40 | – | 6.30 | 5.52 |
| – | N=C(N)c1ccc2cc(OC(=O)c3ccc(CNC(=O)C(N)CCCCN)o3)ccc2c1 (stereo not drawn) [compound 35] | 100% | 100% | 71% | 5.70 | 5.52 | 5.52 | 6.05 | – | 5.10 | 5.52 |
| – | N=C(N)c1ccc2cc(OC(=O)c3ccc(CNC(=O)C(N)COCc4ccccc4)o3)ccc2c1 (stereo not drawn) [compound 36] | 100% | 100% | 68% | 6.30 | 6.22 | 5.40 | 6.22 | 6.52 | 6.70 | – |
| – | N=C(N)c1ccc2cc(OC(=O)c3ccc(NC(=O)C4CCC(CN)CC4)o3)ccc2c1 (stereo not drawn) [compound 37] | 99% | 78% | 12% | 5.52 | 6.40 | 6.40 | 6.40 | 6.05 | 6.15 | – |
| – | N=C(N)c1ccc2cc(OC(=O)c3ccc(CNC(=O)C4CCC(CN)CC4)o3)ccc2c1 (stereo not drawn) [compound 38] | 100% | 100% | 98% | 6.52 | 6.40 | 5.52 | 6.52 | 7.10 | 6.30 | – |
| – | N=C(N)c1ccc2cc(OC(=O)c3ccc(CCNC(=O)C4CCC(CN)CC4)o3)ccc2c1 (stereo not drawn) [compound 39] | 100% | 100% | 71% | 6.40 | 6.40 | 5.40 | 6.30 | 5.70 | 6.10 | – |
